Patent publication US20220331247A1, “Polymeric micelle, methods of production and uses thereof” (Association for the Advancement of Tissue Engineering and …, priority 2019, published 2022)

Legend:
[1] = system: hACs cultured in monolayer; test: Biological effects of Dex treatments in hACs monoculture; format: cell-based, human; conditions: Dex 100 WI
Experimental: (§1) In an embodiment, the biological effects of dexamethasone (Dex) in monocultures and co-culture of hACs and THP-1 were analysed. To compare the biological effects of free Dex and the polymeric micelles encapsulating Dex, monoculture and co-culture systems of hACs and stimulated M1 macrophages were used. Three different conditions were tested: (i) no treatment (Ctr), (ii) treatment with micelles encapsulating Dex (Mic+Dex), and (iii) treatment with free Dex (Dex). The concentration of Dex was […], and in the co-culture system, 50 mU of GR was added.
(§2) The samples were analyzed for (i) cell viability, (ii) cell proliferation, (C) TNF-α concentration, and (D) IL-6 concentration. The alphabet “a” denotes significant difference compared to the hACs Ctr, “b” denotes significant difference compared to the THP-1 Ctr, and “c” denotes significant difference as compared to the co-culture Ctr where p<0.01.

[2] = system: IL-6; test: IL-6 quantified in the medium, co-culture system; format: cell-based, human; conditions: untreated maximum about 1.2 μg/mL
Experimental: as §1
TNF-α and IL-6 cytokines (FIGS. 5C and D, respectively) were quantified in the medium. […] This may be explained due to the controlled release of Dex from the polymeric micelles over the time. With regard to IL-6, the establishment of the co-culture system increased IL-6 amount to a maximum of about 1.2 μg/mL. In this case, both the polymeric micelles with encapsulated Dex and free Dex were able to effectively reduce the amount of IL-6 in the medium to about 0.1 μg/mL.
as §2

C[C@@H]1C[C@H]2[C@@H]3CCC4=CC(=O)C=C[C@]4(C)[C@@]3(F)[C@@H](O)C[C@]2(C)[C@@]1(O)C(=O)CO [Dex, dexamethasone]
hACs' viability and proliferation vs Ctr [1]: significantly reduced
amount of IL-6 in the medium after treatment [2]: about 0.1 μg/mL
